Assay results reported in publication PMC6146907, “Structural Determinants of the Stability of Enzyme‐Responsive Polyion Complex Nanoparticles Targeting Pseudomonas aeruginosa’s Elastase” (Chemnanomat, 2018).
Peptide text beside a SMILES is read from it.

Target: Pseudomonas aeruginosa Elastase (LasB) (Pseudomonas aeruginosa, UniProt P14756)
Settings: fluorescamine assay; 125 μL 1 mM peptide + 125 μL buffer with 15 μg LasB; 25 mM Na2B4O7 pH 8.0, 10 mM CaCl2; 37 °C, 4 h; fluorescence ex 355/em 460 nm; normalised to P5 = 100%; n=3
Protocol: P5’s sequence should be formed following LasB‐mediated hydrolysis of the −GLAE− sequence, present in all the peptides reported.
One‐way ANOVA, followed by Tukey's test (CI=95%,) was used to test for significance. Statistical significance was determined ‘n/s’=not significant, *** p<0.001.
Stock solutions of peptide (1 mM) or succinyl casein (0.5 mg/mL) were prepared in 25 mM Na2B4O7 buffer at pH 8.0 with 10 mM CaCl2 and 10% v/v DMSO. 125 μL of these substrate solutions were added to a 96‐well black‐walled microplate and mixed with 125 μL of the same buffer without DMSO, containing 15 μg of enzyme (LasB or HLE). Solutions of enzymes and substrates alone were prepared as controls. Every sample was prepared in triplicate. The microplate was incubated at 37 °C for 4 hours under orbital shaking. After 4 hours, 50 μL of 0.1 M EDTA in water at pH 8.0 were added to each well to quench all enzymatic activity. Then, each sample was mixed in a 1 : 1 volume ratio with a 1 mM solution of fluorescamine19 in methanol. […] After this time, fluorescence was measured exciting at 355 nm and reading the emission at 460±10 nm. […]
fluorescence is related to the elastase-mediated hydrolysis of the peptides. […]
of the elastases and the fluorescence observed is represented by black bars . […]
peptides,[4] was incubated in the absence of elastase and the fluorescence obtained was associated

Chain of Pseudomonas aeruginosa Elastase (LasB) (P14756 198-498): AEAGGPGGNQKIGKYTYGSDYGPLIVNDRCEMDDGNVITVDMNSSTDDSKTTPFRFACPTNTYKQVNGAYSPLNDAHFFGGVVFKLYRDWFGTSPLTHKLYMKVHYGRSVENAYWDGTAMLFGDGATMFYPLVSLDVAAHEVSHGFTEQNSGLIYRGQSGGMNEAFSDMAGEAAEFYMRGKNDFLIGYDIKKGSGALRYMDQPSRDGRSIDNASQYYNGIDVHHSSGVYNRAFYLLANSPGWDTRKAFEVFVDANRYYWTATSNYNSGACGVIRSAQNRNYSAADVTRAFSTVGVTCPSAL

SMILES	susceptibility to LasB hydrolysis (relative amine content)
CC(=O)N[C@@H](CS)C(=O)N[C@@H](CCC(=O)O)C(=O)N[C@@H](CCC(=O)O)C(=O)N[C@@H](CCC(=O)O)C(=O)NCC(=O)N[C@@H](CC(C)C)C(=O)N[C@@H](C)C(=O)N[C@@H](CCC(=O)O)C(=O)N[C@@H](CCC(=O)O)C(=O)N[C@@H](CCC(=O)O)C(=O)N[C@@H](CS)C(=O)O [P3SH] (Ac-CEEEGLAEEEC-OH)	highest susceptibility
CC(=O)N[C@@H](CS)C(=O)N[C@@H](CCC(=O)O)C(=O)N[C@@H](CCC(=O)O)C(=O)NCC(=O)N[C@@H](CC(C)C)C(=O)N[C@@H](C)C(=O)N[C@@H](CCC(=O)O)C(=O)N[C@@H](CCC(=O)O)C(=O)N[C@@H](CS)C(=O)O [P2SH] (Ac-CEEGLAEEC-OH)	least active
